According to ChEMBL document CHEMBL1147374, “Chemical constituents of Aristolochia rigida and mutagenic activity of aristolochic acid IV” (J Nat Prod, 1993):

How the values were obtained:
Conditions in all cases: salmonella enterica subsp. enterica serovar typhimurium; call rule not given here
Salmonella typhimurium [1] = assay: Mutagenic activity in Salmonella Typhimurium TA100 assessed as increase in number of histidine revertants up to 100 ug/plate after 48 hrs in presence of rat S9 liver homogenate by Ames test; assay type: toxicity, organism-based, Liver S9 fraction
Salmonella typhimurium [2] = assay: Mutagenic activity in Salmonella typhimurium TA100 assessed as number of histidine revertants after 48 hrs in presence of phenobarbital treated rat S9 liver homogenate by Ames test; assay type: toxicity, organism-based, Liver S9 fraction
Salmonella typhimurium [3] = assay: Toxicity in Salmonella Typhimurium TA100 at 500 ug/plate; assay type: organism-based
Salmonella typhimurium [4] = assay: Toxicity in Salmonella Typhimurium TA100 up to 100 ug/plate; assay type: organism-based

## COc1cc(OC)c2cc([N+](=O)[O-])c3c(C(=O)O)cc4c(c3c2c1)OCO4 [ARISTOLOCHIC ACID IV]
Salmonella typhimurium [1]
  Activity: Active
Salmonella typhimurium [2]
  Activity: Dose-dependent effect
Salmonella typhimurium [3]
  Activity: Toxic
Salmonella typhimurium [4]
  Activity: Non-toxic
